Data published in the CheMixHub ionic liquid set.
± gives the uncertainty stated by the source.

Experiment: xn = mol fraction of the nth substance listed
Details: 100 kPa

Compound: CCCCCCCC[n+]1ccccc1.[Br-] + C[C@H](N)C(=O)O + O
- electrical conductivity (288.15 K, x2 = 0.0008949, x1 = 0.005855): 1.24 ± 0.074 S/m
- electrical conductivity (288.15 K, x2 = 0.000895, x1 = 0.005791): 1.23 ± 0.074 S/m
- electrical conductivity (288.15 K, x2 = 0.0008952, x1 = 0.005507): 1.2 ± 0.072 S/m
- electrical conductivity (288.15 K, x2 = 0.0008955, x1 = 0.005201): 1.17 ± 0.07 S/m
- electrical conductivity (288.15 K, x2 = 0.0008958, x1 = 0.004877): 1.14 ± 0.068 S/m
- electrical conductivity (288.15 K, x2 = 0.0008961, x1 = 0.004522): 1.1 ± 0.066 S/m
- electrical conductivity (288.15 K, x2 = 0.0008965, x1 = 0.004131): 1.04 ± 0.063 S/m
- electrical conductivity (288.15 K, x2 = 0.0008969, x1 = 0.003704): 0.975 ± 0.059 S/m
- electrical conductivity (288.15 K, x2 = 0.0008973, x1 = 0.003232): 0.884 ± 0.053 S/m
- electrical conductivity (288.15 K, x2 = 0.0008977, x1 = 0.002757): 0.789 ± 0.047 S/m
- electrical conductivity (288.15 K, x2 = 0.0008982, x1 = 0.002255): 0.678 ± 0.041 S/m
- electrical conductivity (288.15 K, x2 = 0.0008984, x1 = 0.001938): 0.603 ± 0.036 S/m
- electrical conductivity (288.15 K, x2 = 0.0008988, x1 = 0.001556): 0.507 ± 0.03 S/m
- electrical conductivity (288.15 K, x2 = 0.0008991, x1 = 0.001181): 0.405 ± 0.024 S/m
- electrical conductivity (288.15 K, x2 = 0.0008995, x1 = 0.0007571): 0.288 ± 0.017 S/m
- electrical conductivity (288.15 K, x2 = 0.001794, x1 = 0.002782): 0.753 ± 0.045 S/m
- electrical conductivity (288.15 K, x2 = 0.001795, x1 = 0.002177): 0.623 ± 0.037 S/m
- electrical conductivity (288.15 K, x2 = 0.001796, x1 = 0.001292): 0.412 ± 0.025 S/m
- electrical conductivity (288.15 K, x2 = 0.001796, x1 = 0.001777): 0.532 ± 0.032 S/m
- electrical conductivity (288.15 K, x2 = 0.001797, x1 = 0.0008214): 0.291 ± 0.018 S/m
- electrical conductivity (293.15 K, x2 = 0.0008949, x1 = 0.005848): 1.41 ± 0.085 S/m
- electrical conductivity (293.15 K, x2 = 0.000895, x1 = 0.005786): 1.4 ± 0.084 S/m
- electrical conductivity (293.15 K, x2 = 0.0008952, x1 = 0.005501): 1.37 ± 0.082 S/m
- electrical conductivity (293.15 K, x2 = 0.0008955, x1 = 0.005196): 1.33 ± 0.08 S/m
- electrical conductivity (293.15 K, x2 = 0.0008958, x1 = 0.004871): 1.29 ± 0.077 S/m
- electrical conductivity (293.15 K, x2 = 0.0008961, x1 = 0.004517): 1.25 ± 0.075 S/m
- electrical conductivity (293.15 K, x2 = 0.0008965, x1 = 0.004128): 1.18 ± 0.071 S/m
- electrical conductivity (293.15 K, x2 = 0.0008969, x1 = 0.003703): 1.1 ± 0.066 S/m
- electrical conductivity (293.15 K, x2 = 0.0008973, x1 = 0.003228): 1 ± 0.06 S/m
- electrical conductivity (293.15 K, x2 = 0.0008977, x1 = 0.002756): 0.894 ± 0.054 S/m
- electrical conductivity (293.15 K, x2 = 0.0008982, x1 = 0.002254): 0.766 ± 0.046 S/m
- electrical conductivity (293.15 K, x2 = 0.0008984, x1 = 0.001937): 0.68 ± 0.041 S/m
- electrical conductivity (293.15 K, x2 = 0.0008988, x1 = 0.001555): 0.568 ± 0.034 S/m
- electrical conductivity (293.15 K, x2 = 0.0008991, x1 = 0.001179): 0.455 ± 0.027 S/m
- electrical conductivity (293.15 K, x2 = 0.0008995, x1 = 0.0007571): 0.334 ± 0.02 S/m
- electrical conductivity (293.15 K, x2 = 0.001794, x1 = 0.00278): 0.851 ± 0.051 S/m
- electrical conductivity (293.15 K, x2 = 0.001795, x1 = 0.002175): 0.705 ± 0.042 S/m
- electrical conductivity (293.15 K, x2 = 0.001796, x1 = 0.001292): 0.464 ± 0.028 S/m
- electrical conductivity (293.15 K, x2 = 0.001796, x1 = 0.001777): 0.602 ± 0.036 S/m
- electrical conductivity (293.15 K, x2 = 0.001797, x1 = 0.0008196): 0.325 ± 0.02 S/m
- electrical conductivity (298.15 K, x2 = 0.0008949, x1 = 0.005843): 1.59 ± 0.095 S/m
- electrical conductivity (298.15 K, x2 = 0.000895, x1 = 0.005779): 1.58 ± 0.095 S/m
- electrical conductivity (298.15 K, x2 = 0.0008952, x1 = 0.005494): 1.54 ± 0.093 S/m
- electrical conductivity (298.15 K, x2 = 0.0008955, x1 = 0.005188): 1.5 ± 0.09 S/m
- electrical conductivity (298.15 K, x2 = 0.0008958, x1 = 0.004866): 1.45 ± 0.087 S/m
- electrical conductivity (298.15 K, x2 = 0.0008961, x1 = 0.004511): 1.4 ± 0.084 S/m
- electrical conductivity (298.15 K, x2 = 0.0008965, x1 = 0.004122): 1.32 ± 0.08 S/m
- electrical conductivity (298.15 K, x2 = 0.0008969, x1 = 0.003697): 1.24 ± 0.074 S/m
- electrical conductivity (298.15 K, x2 = 0.0008973, x1 = 0.003225): 1.12 ± 0.067 S/m
- electrical conductivity (298.15 K, x2 = 0.0008977, x1 = 0.002752): 1 ± 0.06 S/m
- electrical conductivity (298.15 K, x2 = 0.0008982, x1 = 0.002252): 0.857 ± 0.051 S/m
- electrical conductivity (298.15 K, x2 = 0.0008984, x1 = 0.001935): 0.762 ± 0.046 S/m
- electrical conductivity (298.15 K, x2 = 0.0008988, x1 = 0.001553): 0.633 ± 0.038 S/m
- electrical conductivity (298.15 K, x2 = 0.0008991, x1 = 0.001178): 0.509 ± 0.031 S/m
- electrical conductivity (298.15 K, x2 = 0.0008995, x1 = 0.0007571): 0.36 ± 0.022 S/m
- electrical conductivity (298.15 K, x2 = 0.001794, x1 = 0.002776): 0.953 ± 0.057 S/m
- electrical conductivity (298.15 K, x2 = 0.001795, x1 = 0.002171): 0.788 ± 0.047 S/m
- electrical conductivity (298.15 K, x2 = 0.001796, x1 = 0.00129): 0.518 ± 0.031 S/m
- electrical conductivity (298.15 K, x2 = 0.001796, x1 = 0.001774): 0.671 ± 0.04 S/m
- electrical conductivity (298.15 K, x2 = 0.001797, x1 = 0.0008196): 0.36 ± 0.022 S/m
- electrical conductivity (303.15 K, x2 = 0.0008949, x1 = 0.005838): 1.78 ± 0.11 S/m
- electrical conductivity (303.15 K, x2 = 0.000895, x1 = 0.005773): 1.77 ± 0.11 S/m
- electrical conductivity (303.15 K, x2 = 0.0008952, x1 = 0.005489): 1.73 ± 0.1 S/m
- electrical conductivity (303.15 K, x2 = 0.0008955, x1 = 0.005185): 1.68 ± 0.1 S/m
- electrical conductivity (303.15 K, x2 = 0.0008958, x1 = 0.004861): 1.62 ± 0.097 S/m
- electrical conductivity (303.15 K, x2 = 0.0008961, x1 = 0.004508): 1.56 ± 0.094 S/m
- electrical conductivity (303.15 K, x2 = 0.0008965, x1 = 0.004119): 1.48 ± 0.089 S/m
- electrical conductivity (303.15 K, x2 = 0.0008969, x1 = 0.003694): 1.38 ± 0.083 S/m
- electrical conductivity (303.15 K, x2 = 0.0008973, x1 = 0.003221): 1.25 ± 0.075 S/m
- electrical conductivity (303.15 K, x2 = 0.0008977, x1 = 0.002748): 1.11 ± 0.067 S/m
- electrical conductivity (303.15 K, x2 = 0.0008982, x1 = 0.002248): 0.952 ± 0.057 S/m
- electrical conductivity (303.15 K, x2 = 0.0008984, x1 = 0.001933): 0.834 ± 0.05 S/m
- electrical conductivity (303.15 K, x2 = 0.0008988, x1 = 0.001553): 0.687 ± 0.041 S/m
- electrical conductivity (303.15 K, x2 = 0.0008991, x1 = 0.001178): 0.563 ± 0.034 S/m
- electrical conductivity (303.15 K, x2 = 0.0008995, x1 = 0.0007553): 0.418 ± 0.025 S/m
- electrical conductivity (303.15 K, x2 = 0.001794, x1 = 0.002774): 1.06 ± 0.064 S/m
- electrical conductivity (303.15 K, x2 = 0.001795, x1 = 0.002169): 0.875 ± 0.052 S/m
- electrical conductivity (303.15 K, x2 = 0.001796, x1 = 0.001289): 0.574 ± 0.035 S/m
- electrical conductivity (303.15 K, x2 = 0.001796, x1 = 0.001774): 0.741 ± 0.044 S/m
- electrical conductivity (303.15 K, x2 = 0.001797, x1 = 0.0008196): 0.4 ± 0.024 S/m
- electrical conductivity (308.15 K, x2 = 0.000895, x1 = 0.005759): 2.02 ± 0.12 S/m
- electrical conductivity (308.15 K, x2 = 0.000895, x1 = 0.005823): 2.04 ± 0.12 S/m
- electrical conductivity (308.15 K, x2 = 0.0008953, x1 = 0.005478): 1.95 ± 0.12 S/m
- electrical conductivity (308.15 K, x2 = 0.0008955, x1 = 0.005172): 1.88 ± 0.11 S/m
- electrical conductivity (308.15 K, x2 = 0.0008958, x1 = 0.00485): 1.8 ± 0.11 S/m
- electrical conductivity (308.15 K, x2 = 0.0008961, x1 = 0.004497): 1.72 ± 0.1 S/m
- electrical conductivity (308.15 K, x2 = 0.0008965, x1 = 0.00411): 1.63 ± 0.098 S/m
- electrical conductivity (308.15 K, x2 = 0.0008969, x1 = 0.003686): 1.51 ± 0.091 S/m
- electrical conductivity (308.15 K, x2 = 0.0008973, x1 = 0.003214): 1.36 ± 0.082 S/m
- electrical conductivity (308.15 K, x2 = 0.0008977, x1 = 0.002743): 1.2 ± 0.072 S/m
- electrical conductivity (308.15 K, x2 = 0.0008982, x1 = 0.002245): 1.02 ± 0.061 S/m
- electrical conductivity (308.15 K, x2 = 0.0008984, x1 = 0.001928): 0.908 ± 0.054 S/m
- electrical conductivity (308.15 K, x2 = 0.0008988, x1 = 0.001549): 0.78 ± 0.047 S/m
- electrical conductivity (308.15 K, x2 = 0.0008991, x1 = 0.001174): 0.643 ± 0.039 S/m
- electrical conductivity (308.15 K, x2 = 0.0008995, x1 = 0.0007535): 0.488 ± 0.029 S/m
- electrical conductivity (308.15 K, x2 = 0.001794, x1 = 0.002767): 1.15 ± 0.069 S/m
- electrical conductivity (308.15 K, x2 = 0.001795, x1 = 0.002166): 0.937 ± 0.056 S/m
- electrical conductivity (308.15 K, x2 = 0.001796, x1 = 0.001287): 0.631 ± 0.038 S/m
- electrical conductivity (308.15 K, x2 = 0.001796, x1 = 0.001768): 0.805 ± 0.048 S/m
- electrical conductivity (308.15 K, x2 = 0.001797, x1 = 0.0008178): 0.46 ± 0.028 S/m
